Measured values reported in patent US9266834B2, “1, 4-disubstituted 3-cyano-pyridone derivatives and their use as positive allosteric modulators of MGLUR2-receptors” (JANSSEN PHARMACEUTICALS, INC., priority 2006, dated 2016).

Assays:
human mGluR2 receptor = biological target: T1, human mGluR2 receptor (Homo sapiens, UniProt Q14416); test: [35S]GTPγS binding assay (GTPγS-PAM): positive allosteric modulation in presence of glutamate at EC25, membranes from transfected CHO cells; format: biochemical; details: in presence of mGluR2 agonist glutamate at predetermined EC25 concentration, averages of duplicate values of 11-concentration response curves; for EC50: read-out: GTPgS - hR2 PAM pEC50 (converted)
T1 construct: expressed in transfected cells; host or cells: CHO cells (membrane preparation)
T1 sequence (Q14416 19-872): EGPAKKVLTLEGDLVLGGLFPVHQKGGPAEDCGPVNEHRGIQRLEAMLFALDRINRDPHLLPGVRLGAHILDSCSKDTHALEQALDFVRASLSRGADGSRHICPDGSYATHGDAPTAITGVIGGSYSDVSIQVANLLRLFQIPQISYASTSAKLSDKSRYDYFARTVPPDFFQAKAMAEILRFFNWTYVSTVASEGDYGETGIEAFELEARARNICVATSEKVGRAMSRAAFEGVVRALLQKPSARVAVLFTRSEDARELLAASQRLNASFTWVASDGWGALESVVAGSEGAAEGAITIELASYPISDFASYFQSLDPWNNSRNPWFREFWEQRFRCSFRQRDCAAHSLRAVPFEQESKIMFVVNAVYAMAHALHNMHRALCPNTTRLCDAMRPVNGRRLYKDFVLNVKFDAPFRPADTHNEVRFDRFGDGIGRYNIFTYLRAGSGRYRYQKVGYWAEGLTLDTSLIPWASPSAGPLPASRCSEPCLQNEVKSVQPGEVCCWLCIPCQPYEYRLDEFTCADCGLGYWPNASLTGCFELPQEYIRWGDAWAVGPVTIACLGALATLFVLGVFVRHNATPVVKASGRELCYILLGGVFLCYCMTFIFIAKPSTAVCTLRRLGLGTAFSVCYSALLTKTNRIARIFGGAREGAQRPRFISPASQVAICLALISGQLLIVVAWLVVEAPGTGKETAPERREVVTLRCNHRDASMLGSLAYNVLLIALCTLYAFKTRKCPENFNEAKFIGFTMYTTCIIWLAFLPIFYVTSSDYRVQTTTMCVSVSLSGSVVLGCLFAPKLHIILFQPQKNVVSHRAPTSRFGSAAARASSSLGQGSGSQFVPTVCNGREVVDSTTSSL
Procedure, shortened: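 Potentiation was read as filter-retained [35S]GTPγS (0.1 nM final, 30 min, 30° C.) after a 30 min, 30° C. preincubation of human mGluR2 CHO membranes (15 μg/well) with EC25 glutamate and 11 modulator concentrations spanning 0.3 nM-50 μM. The buffer was 50 mM HEPES pH 7.4, NaCl, MgCl2, 50 μM GDP and saponin. Cold 10 μM GTP defined nonspecific binding; data were fitted by a four-parameter logistic.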

Compound | EC50 (human mGluR2 receptor) [nM] | melting point [°C] | GTPgS - hR2 PAM pEC50 (human mGluR2 receptor)
Cc1ccc(-c2ccn(CCC(C)C)c(=O)c2C#N)cc1 [1-085] | 794 | 102 | –
CC(C)CCn1ccc(-c2ccc(C(C)(C)C)cc2)c(C#N)c1=O [1-086] | 63.1 | 168 | –
CC(C)CCn1ccc(-c2ccccc2F)c(C#N)c1=O [1-087] | 3980 | 125 | –
CC(C)CCn1ccc(-c2cccc(F)c2)c(C#N)c1=O [1-088] | 2510 | 161 | –
CC(C)CCn1ccc(-c2cccc(Cl)c2)c(C#N)c1=O [1-090] | 794 | 123 | –
CC(C)CCn1ccc(-c2ccc(Cl)cc2)c(C#N)c1=O [1-091] | 1580 | 137 | –
CC(C)CCn1ccc(-c2ccc(-c3ccccc3)cc2)c(C#N)c1=O [1-093] | 25.1 | 172 | –
CC(C)CCn1ccc(-c2cccc(-c3ccccc3)c2)c(C#N)c1=O [1-094] | 501 | 131 | –
CC(C)CCn1ccc(-c2ccc(CCCO)cc2)c(C#N)c1=O [1-095, 3-cyano-4-(4-hydroxypropylphenyl)-1-(3-methylbutyl)pyridine-2(1H)-one] | 631 | 85 | –
CC(C)CCn1ccc(-c2cccc(O)c2)c(C#N)c1=O [1-096] | 1580 | 201 | –
CC(C)CCn1ccc(-c2ccc(O)cc2)c(C#N)c1=O [1-097] | 1580 | 210 | –
COc1cccc(-c2ccn(CCC(C)C)c(=O)c2C#N)c1 [1-101] | – | 96 | 5.5
COCc1ccc(-c2ccn(CCC(C)C)c(=O)c2C#N)cc1 [1-103, 3-cyano-4-(4-methoxymethylphenyl)-1-(3-methylbutyl)pyridine-2(1H)-one] | 2000 | 91 | –
CCCOc1ccc(-c2ccn(CCC(C)C)c(=O)c2C#N)cc1 [1-105] | 398 | 107 | –
COCc1cccc(-c2ccn(CCC(C)C)c(=O)c2C#N)c1 [1-107] | 3160 | 67 | –
COc1ccc(-c2ccn(CCC(C)C)c(=O)c2C#N)cc1OC [1-110, 4-(3,4-dimethoxyphenyl)-3-cyano-1-(3-methylbutyl)pyridine-2(1H)-one] | 2510 | 52 | –
CC(C)CCn1ccc(-c2ccc(OC(C)C)cc2)c(C#N)c1=O [1-111] | 316 | 129 | –
COc1ccc(-c2ccn(CCC(C)C)c(=O)c2C#N)cc1Cl [1-112] | 316 | 149 | –
COc1ccc(-c2ccn(CCC(C)C)c(=O)c2C#N)c(F)c1 [1-113, 3-cyano-4-(2-fluoro-4-methoxyphenyl)-1-(3-methylbutyl)pyridine-2(1H)-one] | 631 | 65 | –
COc1ccc(-c2ccn(CCC(C)C)c(=O)c2C#N)cc1F [1-114, 3-cyano-4-(3-fluoro-4-methoxyphenyl)-1-(3-methylbutyl)pyridine-2(1)-one] | 1000 | 133 | –
CCC(C)Oc1ccc(-c2ccn(CCC(C)C)c(=O)c2C#N)cc1F (stereo not drawn) [1-115] | 100 | 154 | –
CC(C)CCn1ccc(-c2ccc(OC(C)C)c(Cl)c2)c(C#N)c1=O [1-117] | 63.1 | 166 | –
CC(C)CCn1ccc(-c2ccc(OC(F)(F)F)cc2)c(C#N)c1=O [1-120] | 501 | 122 | –

Compound | EC50 (human mGluR2 receptor) [nM] | melting point [°C] | GTPgS - hR2 PAM pEC50 (human mGluR2 receptor)
CC(C)CCn1ccc(-c2ccc(OCC(F)F)c(Cl)c2)c(C#N)c1=O [1-122] | 1000 | 131 | –
CC(C)CCn1ccc(-c2ccc(OCC(F)(F)F)c(Cl)c2)c(C#N)c1=O [1-123] | 158 | 189 | –
CC(=O)NCCOc1ccc(-c2ccn(CCC(C)C)c(=O)c2C#N)cc1 [1-128] | 3160 | 107 | –
CC(C)CCn1ccc(-c2ccc(OCC#N)cc2)c(C#N)c1=O [1-131] | 2510 | 132 | –
CC(C)CCn1ccc(-c2ccc(OCC3CC3)c(Cl)c2)c(C#N)c1=O [1-134] | 79.4 | 294 | –
COc1cccc(Oc2ccc(-c3ccn(CCC(C)C)c(=O)c3C#N)cc2)c1 [1-143] | 79.4 | 118 | –
COc1cccc(COc2ccc(-c3ccn(CCC(C)C)c(=O)c3C#N)cc2)c1 [1-144] | 63.1 | 100 | –
COc1ccc(COc2ccc(-c3ccn(CCC(C)C)c(=O)c3C#N)cc2)cc1 [1-145] | 39.8 | 212 | –
CC(C)CCn1ccc(-c2ccc(OCc3cccc(F)c3)cc2)c(C#N)c1=O [1-146] | 63.1 | 139 | –
CC(C)CCn1ccc(-c2ccc(OCc3ccc(F)cc3)cc2)c(C#N)c1=O [1-147] | 79.4 | 146 | –
CC(C)CCn1ccc(-c2ccc(OCc3ccccc3)c(F)c2)c(C#N)c1=O [1-148] | 50.1 | 173 | –
CC(C)CCn1ccc(-c2ccc(OCc3cccc(Cl)c3)cc2)c(C#N)c1=O [1-149] | 50.1 | 120 | –
CC(C)CCn1ccc(-c2ccc(OCc3ccccc3)c(Cl)c2)c(C#N)c1=O [1-150] | 79.4 | 177 | –
CC(C)CCn1ccc(-c2ccc(OCc3cccc(C#N)c3)cc2)c(C#N)c1=O [1-151] | 39.8 | 154 | –
CC(C)CCn1ccc(-c2ccc(Oc3ccc(C#N)cc3)cc2)c(C#N)c1=O [1-152] | 100 | 193 | –
CC(C)CCn1ccc(-c2ccc(OCc3ccc(C#N)cc3)cc2)c(C#N)c1=O [1-153] | 50.1 | 171 | –
CC(C)CCn1ccc(-c2ccc(Oc3cccnc3)cc2)c(C#N)c1=O [1-155] | 501 | 132 | –
CC(C)CCn1ccc(-c2ccc(Oc3ccncc3)cc2)c(C#N)c1=O [1-156] | 501 | 139 | –
CC(C)CCn1ccc(-c2ccc(OCc3ccccn3)cc2)c(C#N)c1=O [1-157] | 398 | 162 | –
CC(C)CCn1ccc(-c2ccc(OCc3cccnc3)cc2)c(C#N)c1=O [1-158] | 501 | 142 | –
CC(C)CCn1ccc(-c2ccc(OCc3ccncc3)cc2)c(C#N)c1=O [1-159] | 501 | 171 | –
CC(C)CCn1ccc(-c2ccc(OCc3ccncc3)cc2F)c(C#N)c1=O [1-162] | 398 | 156 | –

Continued, values first:

EC50 (human mGluR2 receptor) [nM] | melting point [°C] | GTPgS - hR2 PAM pEC50 (human mGluR2 receptor) | Compound
79.4 | 202 | – | CC(C)CCn1ccc(-c2ccc(OCc3ccc(C(F)(F)F)nc3)cc2)c(C#N)c1=O [1-163]
158 | 165 | – | CC(C)CCn1ccc(-c2ccc(OCc3ccc(Cl)nc3)cc2)c(C#N)c1=O [1-164]
501 | 144 | – | Cc1nc(COc2ccc(-c3ccn(CCC(C)C)c(=O)c3C#N)cc2)cs1 [1-169]
501 | 189 | – | CNc1ccc(-c2ccn(CCC(C)C)c(=O)c2C#N)cc1 [1-171]
126 | 137 | – | CC(C)CCn1ccc(-c2ccc(N(C)C)cc2)c(C#N)c1=O [1-172]
6310 | 130 | – | CC(C)CCn1ccc(-c2ccc(CN(C)C)cc2)c(C#N)c1=O [1-173]
5010 | 198 | – | CC(=O)Nc1ccc(-c2ccn(CCC(C)C)c(=O)c2C#N)cc1 [1-176]
3980 | 112 | – | CC(=O)N(C)Cc1ccc(-c2ccn(CCC(C)C)c(=O)c2C#N)cc1 [1-177]
3160 | 144 | – | CC(=O)NCc1ccc(-c2ccn(CCC(C)C)c(=O)c2C#N)cc1 [1-179, 4-(4-(N-acetylmethyl)phenyl)-3-cyano-1-(3-methylbutyl)pyridine-2(1H)-one]
794 | 269 | – | CC(C)CCn1ccc(-c2ccc(NCC#N)cc2)c(C#N)c1=O [1-186]
501 | 119 | – | CC(C)CCn1ccc(-c2ccc(NCCC3(C)OCCO3)cc2)c(C#N)c1=O [1-192]
63.1 | 136 | – | CC(C)CCn1ccc(-c2ccc(NCc3cccc(F)c3)cc2)c(C#N)c1=O [1-199]
79.4 | 162 | – | CC(C)CCn1ccc(-c2ccc(NCc3ccc(F)cc3)cc2)c(C#N)c1=O [1-200]
31.6 | 146 | – | CC(C)CCn1ccc(-c2ccc(NCc3cccc(Cl)c3)cc2)c(C#N)c1=O [1-202]
316 | 173 | – | COc1ccc(CNc2ccc(-c3ccn(CCC(C)C)c(=O)c3C#N)cc2)cc1 [1-203]
25.1 | 157 | – | CC(C)CCn1ccc(-c2ccc(NCc3cccc(C#N)c3)cc2)c(C#N)c1=O [1-204]
50.1 | 209 | – | CC(C)CCn1ccc(-c2ccc(NCc3ccc(C#N)cc3)cc2)c(C#N)c1=O [1-206]
1000 | 73 | – | CC(C)CCn1ccc(-c2ccc(NCc3ccncc3)cc2)c(C#N)c1=O [1-210]
631 | 142 | – | CC(C)CCn1ccc(-c2ccc(CN(C)Cc3ccncc3)cc2)c(C#N)c1=O [1-211]
1000 | 294 | – | CC(C)CCn1ccc(-c2ccc(CN(C)Cc3ccccn3)cc2)c(C#N)c1=O [1-212]
3160 | 70 | – | CC(C)CCn1ccc(-c2cccc(NS(C)(=O)=O)c2)c(C#N)c1=O [1-215]
